From patent US20090233910A1, “Npy antagonists, preparation and uses” (CEREP, priority 2005, published 2009)
Marks after values point to notes of the source that are not given here.

Assays:
[1] = target: T1, NPY Y1 receptor (Homo sapiens, UniProt P25929); assay: cAMP measurement test in SK-N-MC cells (shift of NPY dose-effect curves, forskoline-stimulated); type: cell-based; details: Schild analysis vs NPY, read-out: pA2 Y1 (converted)
T1 construct: host or cells: SK-N-MC cells (whole-cell suspension)
T1 sequence (P25929 1-384): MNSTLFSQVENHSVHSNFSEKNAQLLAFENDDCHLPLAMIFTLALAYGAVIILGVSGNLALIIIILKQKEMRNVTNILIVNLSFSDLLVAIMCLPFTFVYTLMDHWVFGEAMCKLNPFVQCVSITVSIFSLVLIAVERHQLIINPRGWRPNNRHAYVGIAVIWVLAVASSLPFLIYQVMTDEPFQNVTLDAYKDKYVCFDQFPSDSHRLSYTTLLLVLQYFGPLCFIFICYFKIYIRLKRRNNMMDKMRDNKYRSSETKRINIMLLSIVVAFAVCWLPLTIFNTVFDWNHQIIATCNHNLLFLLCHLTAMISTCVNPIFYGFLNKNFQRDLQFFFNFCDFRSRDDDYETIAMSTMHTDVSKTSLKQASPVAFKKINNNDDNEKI
Protocol: The SK-N-MC cells are cultured in 96-well plates. After aspirating the culture medium, the cells are washed with a phosphate buffer pH 7.4 (Invitrogen ref. 14190-094), then lifted with a Versene solution (Invitrogen, ref 15040-033). The cells are centrifuged at 500×g for 10 minutes at 4° C. They are resuspended in a stimulation buffer containing isobutyl-methyl-xanthine in sufficient concentration to inhibit the phosphodiesterases (Flashplate kit, Perkin Elmer). The tested compounds are added 10 minutes before depositing the NPY (Bachem, H3322) in variable concentration, then the 300 nM forskoline (Sigma, F6886). The cells are in cubated 1 hour at ambient temperature to allow cAMP production whose levels are measured using the Flashplate method after 2 hours incubation with the cAMP tracer [^125I]. The results are expressed in pA2 form observing the displacement of NPY dose-effect curves in the absence and presence of increasing concentrations of test compound [Schild, 1949, pAx and competitive drug antagonism, Br. J. Pharmacol., 4, 277-280].

[2] = target: T1, NPY Y1 receptor; assay: Binding test to the NPY Y1 receptor ([125I]-PYY, SK-N-MC cell suspension); details: SK-N-MC cells, 25 pM [125I]-PYY
Protocol: The SK-N-MC cells (ATCC HBT10) are cultured at 37° C. in MEM medium (minimum essential medium) free of phenol red (Invitrogen ref. 04194565M) containing 10% foetal calf serum (Invitrogen ref. 10270-106), 1% non-essential aminoacids (Invitrogen ref. 11140-035), 1% sodium pyruvate (Invitrogen ref. 11360-039), 1% glutamine (Invitrogen ref. 25030-032), 100 IU/ml of penicillin and 100 μg/ml of streptomycin (Invitrogen ref. 15140-122) in a humid atmosphere containing 5% CO2.
After aspirating the culture medium, the cells are washed with a phosphate buffer pH 7.4 (Invitrogen ref. 14190-094), then lifted with a Versene solution (Invitrogen, ref 15040-033). The cells are centrifuged at 500×g for 10 minutes at 4° C. then resuspended in a freeze buffer pH 7.4 containing 50 mM HEPES (N-2-hydroxyethylpiperazine-N′-2-ethanesulfonic acid), 145 mM sodium chloride, 2.6 mM calcium chloride, 1 mM magnesium chloride, 10 mM glucose, and 1 mg/ml bovine albumin. The cell suspension is aliquoted into twenty million cells per milliliter of buffer and stored at −70° C.
The cell suspension is incubated 2 hours at 37° C. in an incubation buffer pH 7.4 containing 50 mM HEPES, 2.5 mM calcium chloride, 1 mM magnesium chloride, 0.025% sodium azide, 1 mg/ml bovine albumin and 25 pM [^125I]-PYY (Perkin Elmer, NEX341). The reaction is halted by filtering through a GF/B filter pre-treated with 0.3% PEI, and washed three times with 1 ml of 50 mM TRIS buffer [tris(hydroxymethyl)aminomethane]/HCl, pH 7.4. The radioactivity deposited on the filter is measured by liquid scintillation count (TopCount, Packard). Non-specific binding is determined in the presence of 1 μM NPY (Bachem, H3322). Results are expressed as IC50 values in nM calculated by non-linear regression with 4 parameters.

[3] = system: fasting mice; assay: Food intake by fasting mice; type: in vivo; details: fasting male OF1 mice, 30 mg/kg ip
Protocol: The day before the experiment at 16 h, male OF1 mice (Charles River, France) with body weight varying between 20 and 25 g, are left to fast in individual cages with unlimited drink water. On the day of the experiment, at 9 h30±15 min, a control batch of 10 mice was given the solvent (5% DMSO, Merck, 1.02931.1000, 5% cremophor EL, Sigma C-5135, physiological saline solution to complete to volume) via intra peritoneal route or per os in a volume of 10 ml/kg, and the other batches of 10 mice were given the products to be tested dissolved in the solvent (10 or 30 mg/kg in a volume of 10 ml/kg ip ou po). Individual feed troughs filled with food (A04, UAR, France) were weighed then placed in the cages, exactly 30 min or 60.min after treating the mice ip or per os, respectively. The feed troughs were then weighed 1 h, 2 h, 3 h, 4 h and when applicable 6 h and 24 h after placing the feed troughs in the cages. Food consumptions are expressed in grams, as a mean±standard error (S.E.M). (n=10). Statistical analysis used ANOVA followed by Dunnett's multiple comparison test. The level of significance is obtained for p<0.05.

Row | SMILES | Kb [1] [nM] | IC50 [2] [nM] | Accumulated inhibition of food intake after ip administering of 30 mg/kg, 0-1 h ([3]; 0-1 h) [%*] | Accumulated inhibition of food intake after ip administering of 30 mg/kg, 0-2 h ([3]; 0-2 h) [%] | Accumulated inhibition of food intake after ip administering of 30 mg/kg, 0-3 h ([3]; 0-3 h) [%**] | Accumulated inhibition of food intake after ip administering of 30 mg/kg, 0-4 h ([3]; 0-4 h) [%*]
1 | CCC(CC)NC(=O)Nc1ccc(Oc2cnc(NC(=O)c3ccc(OC4CCN(C(C)C)CC4)cc3)s2)c(OC)c1 [Example 2, N-(5-{4-[3-(1-Ethyl-propyl)-ureido]-2-methoxy-phenoxy}-thiazol-2-yl)-4-(1-isopropyl-piperidin-4-yloxy)-benzamide] | 10 | 15 | – | – | – | –
2 | CCOc1cc(NC(=O)NC(CC)CC)ccc1Oc1ccc(NC(=O)c2ccc(O[C@H]3C[C@H]4CC[C@@H](C3)N4C)cc2)cc1 [Example 40, N-(4-{2-Ethoxy-4-[3-(1-ethyl-propyl)-ureido]-phenoxy}-phenyl)-4-(8-methyl-8-aza-bicyclo[3.2.1]oct-(3-endo)-yloxy)-benzamide] | 2.24 | 1.7 | – | – | – | –
3 | CCCCN1CCC(Oc2ccc(C(=O)Nc3ccc(Oc4cc(F)c(NC(=O)NC(CC)CC)cc4OC)cc3)cc2C)CC1 [Example 312, 4-(1-Butyl-piperidin-4-yloxy)-N-(4-{4-[3-(1-ethyl-propyl)-ureido]-5-fluoro-2-methoxy-phenoxy}-phenyl)-3-methyl-benzamide] | – | – | 42 | 21 | 33 | 27
